This is an account of results in patent EP4121415B1, “INHIBITORS OF CYTOKININ OXIDASE DERIVED FROM 1-[2-(HYDROXYALKYL)PHENYL]-3-YLUREA, USE THEREOF AND PREPARATIONS CONTAINING THESE DERIVATIVES” (Univerzita Palackého v Olomouci, priority 2020, dated 2021).

The target of the assay is T1, maize enzyme cytokinin oxidase/dehydrogenase 1 (ZmCKX1) (Zea mays, UniProt Q9T0N8).
T1 construct: made in house; host or cells: Yarrowia lipolytica
The experiment in a line: ZmCKX1 inhibition, PMS/MTT assay. The assay is classed as biochemical. As to the method: The IC50 (concentration of a substance that causes 50% inhibition of the enzyme activity) was measured by PMS/MTT assay [phenazine methosulphate/3-(4,5-dimethylthiazol-2-yl)-2,5-diphenyltetrazolium bromide]. The assay was performed in 96-well microtiter plates. Each well contained a reaction mixture with a final concentration of: 0.1 M KH2PO4, pH 7.4, 1 mM MTT, 0.2 mM PMS, tested substance in a concentration range of 0.1 nM - 1 µM and 10 µM N^6-isopentenyladenine (iP) as a substrate. To this reaction mixture 100 µL of medium containing the active enzyme ZmCKX1 was added. The enzyme was produced by the yeast Yarrowia lipolytica and isolated according to the protocol (Kopečný D. et al., 2005, […] 87:1011-1022). The plates were incubated for 30 min at 37 °C and the enzymatic reaction was stopped by the addition of 25 µL of 35% acetic acid. Then, the absorbance at 578 nm was measured on a spectrophotometer, and the absorbance of the sample without the substrate was substracted as a reference value. The IC50 value was determined from the concentration-dependent curves in GraphPad Prism software. The values shown in Table 1 are the average of at least two measurements each performed in three repetitions. […] This also applies to 3,5-DCl-Ph-U derivatives.

[1] abbreviates: 10 µM N6-isopentenyladenine (iP) as substrate, pH 7.4, 30 min at 37 °C, average of at least two measurements, read-out: IC50 (µM) ZmCKX1.

Where two headings read alike, the source gives them in different places.

T1 sequence (Q9T0N8 19-534): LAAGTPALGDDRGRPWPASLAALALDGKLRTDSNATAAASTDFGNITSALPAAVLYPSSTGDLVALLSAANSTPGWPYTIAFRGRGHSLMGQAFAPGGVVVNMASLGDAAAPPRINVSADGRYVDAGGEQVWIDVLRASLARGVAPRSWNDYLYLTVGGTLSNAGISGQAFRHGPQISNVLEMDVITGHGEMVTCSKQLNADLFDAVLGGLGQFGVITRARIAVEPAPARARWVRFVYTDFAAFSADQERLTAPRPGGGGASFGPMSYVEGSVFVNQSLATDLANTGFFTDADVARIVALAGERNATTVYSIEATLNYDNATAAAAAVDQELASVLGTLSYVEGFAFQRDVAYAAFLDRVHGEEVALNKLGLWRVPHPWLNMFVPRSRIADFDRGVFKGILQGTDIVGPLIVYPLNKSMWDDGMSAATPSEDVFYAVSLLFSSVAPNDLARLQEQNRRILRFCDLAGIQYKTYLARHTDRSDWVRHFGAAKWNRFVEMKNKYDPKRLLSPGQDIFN

On to `O=C(Nc1cccc(OC(F)(F)F)c1)Nc1cccc(F)c1CO` [Compound 29, 1-(3-fluoro-2-hydroxymethylphenyl)-3-(3-trifluoromethoxyphenyl)urea], for which, under setting [1], the half-maximal inhibitory concentration (IC50) – broadly, the point on the concentration scale where inhibition reaches its midpoint – was determined as 0.36 µM.
For the compound `O=C(Nc1cccc(OC(F)(F)F)c1)Nc1cccc(Cl)c1CO` [Compound 30, 1-(3-Chloro-2-hydroxymethylphenyl)-3-(3-trifluoromethoxyphenyl)urea], under setting [1], the half-inhibitory concentration (IC50) was 0.3 µM.
On to `O=C(Nc1cccc(OC(F)(F)F)c1)Nc1cccc(Br)c1CO` [Compound 31, 1-(3-bromo-2-hydroxymethylphenyl)-3-(3-trifluoro-methoxyphenyl)urea], for which the IC50 under setting [1] was determined as 0.37 µM.
`O=C(Nc1cccc(OC(F)(F)F)c1)Nc1cc(F)ccc1CO` [Compound 32, 1-(5-fluoro-2-hydroxymethylphenyl)-3-(3-trifluoromethoxyphenyl)urea]: under setting [1], the IC50 was found to be 0.11 µM.
Still for that read-out and setting: as for `O=C(Nc1cccc(OC(F)(F)F)c1)Nc1cc(Cl)ccc1CO` [Compound 33, 1-(5-Chloro-2-hydroxymethylphenyl)-3-(3-trifluoromethoxyphenyl)urea], the figure is 0.06 µM; as for `O=C(Nc1cccc(OC(F)(F)F)c1)Nc1cc(F)cc(F)c1CO` [Compound 35, 1-(3,5-Difluoro-2-hydroxymethylphenyl)-3-(3-trifluoromethoxyphenyl)urea], 0.085 µM.
`O=C(Nc1cccc(OC(F)(F)F)c1)Nc1cc(Cl)cc(Cl)c1CO` [Compound 36, 1-(3,5-dichloro-2-hydroxymethylphenyl)-3-(3-trifluoromethoxyphenyl)urea]: the half-inhibitory concentration (IC50) under setting [1] came out at 0.032 µM.
For the compound `O=C(Nc1cccc(OC(F)(F)F)c1)Nc1cc(Br)cc(Br)c1CO` [Compound 37, 1-(3,5-dibromo-2-hydroxymethylphenyl)-3-(3-trifluoromethoxyphenyl)urea], under setting [1], the 50% inhibitory concentration (IC50) is 0.051 µM.
As for `O=C(Nc1cc(NCCO)cc(OC(F)(F)F)c1)Nc1ccccc1CO` [Compound 38, 1-[3-(2-hydroxyethylamino)-5-trifluoromethoxyphenyl]-3-(2-hydroxymethylphenyl)urea], the concentration for half-maximal inhibition (IC50) under setting [1] came to 0.1 µM.
Take `NCCNc1cc(NC(=O)Nc2ccccc2CO)cc(OC(F)(F)F)c1` [Compound 39, 1-[3-(2-aminoethylamino)-5-trifluoromethoxyphenyl]-3-(2-hydroxymethylphenyl)urea]: the IC50 under setting [1] is 0.095 µM.
As for `O=C(Nc1cccc(SC(F)(F)F)c1)Nc1ccccc1CO` [Compound 41, 1-(2-hydroxymethylphenyl)-3-(3-trifluoromethylsulphanylphenyl)urea], the half-maximal inhibitory concentration (IC50) under setting [1] was 0.14 µM.
As to `O=C(Nc1cccc(SC(F)(F)F)c1)Nc1cc(Cl)ccc1CO` [Compound 43, 1-(5-chloro-2-hydroxymethylphenyl)-3-(3-trifluoromethylsulphanylphenyl)urea], the half-maximal inhibitory concentration (IC50) under setting [1] turned out to be 0.02 µM.
Regarding `O=C(Nc1cc(F)cc(F)c1)Nc1ccccc1CCO` [Compound 44, 1-(3,5-difluorophenyl)-3-[2-(2-hydroxyethyl)phenyl]urea], the IC50 under setting [1] amounted to 0.36 µM.
Take `O=C(Nc1cc(Cl)cc(Cl)c1)Nc1ccccc1CCO` [Compound 45, 1-(3,5-Dichlorophenyl)-3-[2-(2-hydroxyethyl)phenyl]urea]: the half-inhibitory concentration (IC50) under setting [1] was found to be 0.18 µM.
With `O=C(Nc1cc(Br)cc(Br)c1)Nc1ccccc1CCO` [Compound 46, 1-(3,5-dibromophenyl)-3-[2-(2-hydroxyethyl)phenyl]urea], the half-maximal inhibitory concentration (IC50) under setting [1] amounted to 0.14 µM.
Compound `O=C(Nc1cc(F)cc(Br)c1)Nc1ccccc1CCO` [Compound 47, 1-(3-bromo-5-fluorophenyl)-3-[2-(2-hydroxyethyl)phenyl]urea] returned an IC50 of 0.17 µM.
As for `O=C(Nc1cc(F)cc(Cl)c1)Nc1ccccc1CCO` [Compound 48, 1-(3-chloro-5-fluorophenyl)-3-[2-(2-hydroxyethyl)phenyl]urea], under setting [1], the IC50 is 0.21 µM.
As for `O=C(Nc1cc(Cl)cc(Cl)c1)Nc1cc(Cl)cc(Cl)c1CCO` [Compound 49, 1-[3,5-Dichloro-2-(2-hydroxyethyl)phenyl]-3-(3,5-dichlorophenyl)urea], the IC50 under setting [1] came to 0.01 µM.
